Laboratory results from patent publication US4882137A, “Coated veterinary implants” (priority 1986, dated 1989).

Tests used:
[1] = system: ewes; settings: in vivo; cited from earlier work
[2] = system: Maiden Merino ewes; settings: in vivo

SMILES: COc1ccc2[nH]cc(CCNC(C)=O)c2c1 [Melatonin, N-acetyl 5-methoxy tryptamine]
- basal prolactin levels [1]: depressed
- breeding season [1]: advanced
- superovulation [2]: does not induce superovulation
